Reference: article PMC7611903, “DYW domain structures imply an unusual regulation principle in plant organellar RNA editing catalysis” (Nature catalysis, 2021)
Residue numbers refer to the chain shown, from its start.

Assays:
[1] = target: T1, OTP86^DYW (Arabidopsis thaliana, UniProt Q9M1V3); experiment: differential scanning fluorimetry (SYPRO orange); format: binding; conditions: 20 mM Tris pH 7.5, 150 mM NaCl, destabilizing
T1 construct: gene PCMP-H83; isolated DYW domain, residues 826-960; N-terminal Strep-tag cut by TEV, GAM left; E. coli Rosetta2 (DE3); about 15 kDa, monomer
T1 sequence (Q9M1V3 826-960): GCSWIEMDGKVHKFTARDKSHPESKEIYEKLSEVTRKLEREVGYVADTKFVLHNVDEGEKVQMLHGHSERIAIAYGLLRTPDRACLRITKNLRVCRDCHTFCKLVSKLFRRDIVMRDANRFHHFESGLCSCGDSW

[2] = target: T2, PPR56 (Physcomitrium patens, UniProt A0A2K1IWP1); experiment: in vitro C-to-U RNA editing, RT-PCR sequencing; format: biochemical; conditions: nad4 RNA substrate, pH 7.5, 16 °C, activator
T2 construct: gene LOC112295756; recombinant from pETG41K::PPR56 (His-MBP fusion), amylose-purified from E. coli; tag kept; PPR tract, E1, E2 and DYW domain

[3] = target: T3, OTP86^DYW (Arabidopsis thaliana, UniProt Q9M1V3, H892C); experiment: differential scanning fluorimetry (SYPRO orange); format: binding; conditions: 20 mM Tris pH 7.5, 150 mM NaCl; destabilizing
T3 construct: gene PCMP-H83; isolated DYW domain, residues 826-960; N-terminal Strep-tag cut by TEV, GAM left; E. coli Rosetta2 (DE3); about 15 kDa, monomer
T3 sequence (Q9M1V3 826-960 H892C): T1 sequence (Q9M1V3 826-960) with H67C

[4] = target: T4, OTP86^DYW (Arabidopsis thaliana, UniProt Q9M1V3, L917A); experiment: differential scanning fluorimetry (SYPRO orange); format: binding; conditions: 20 mM Tris pH 7.5, 150 mM NaCl; destabilizing
T4 construct: gene PCMP-H83; isolated DYW domain, residues 826-960; N-terminal Strep-tag cut by TEV, GAM left; E. coli Rosetta2 (DE3); about 15 kDa, monomer
T4 sequence (Q9M1V3 826-960 L917A): T1 sequence (Q9M1V3 826-960) with L92A

[5] = target: T5, OTP86^DYW (Arabidopsis thaliana, UniProt Q9M1V3, K915A); experiment: differential scanning fluorimetry (SYPRO orange); format: binding; conditions: 20 mM Tris pH 7.5, 150 mM NaCl; destabilizing
T5 construct: gene PCMP-H83; isolated DYW domain, residues 826-960; N-terminal Strep-tag cut by TEV, GAM left; E. coli Rosetta2 (DE3); about 15 kDa, monomer
T5 sequence (Q9M1V3 826-960 K915A): T1 sequence (Q9M1V3 826-960) with K90A

T2 sequence (A0A2K1IWP1 entry or part of it): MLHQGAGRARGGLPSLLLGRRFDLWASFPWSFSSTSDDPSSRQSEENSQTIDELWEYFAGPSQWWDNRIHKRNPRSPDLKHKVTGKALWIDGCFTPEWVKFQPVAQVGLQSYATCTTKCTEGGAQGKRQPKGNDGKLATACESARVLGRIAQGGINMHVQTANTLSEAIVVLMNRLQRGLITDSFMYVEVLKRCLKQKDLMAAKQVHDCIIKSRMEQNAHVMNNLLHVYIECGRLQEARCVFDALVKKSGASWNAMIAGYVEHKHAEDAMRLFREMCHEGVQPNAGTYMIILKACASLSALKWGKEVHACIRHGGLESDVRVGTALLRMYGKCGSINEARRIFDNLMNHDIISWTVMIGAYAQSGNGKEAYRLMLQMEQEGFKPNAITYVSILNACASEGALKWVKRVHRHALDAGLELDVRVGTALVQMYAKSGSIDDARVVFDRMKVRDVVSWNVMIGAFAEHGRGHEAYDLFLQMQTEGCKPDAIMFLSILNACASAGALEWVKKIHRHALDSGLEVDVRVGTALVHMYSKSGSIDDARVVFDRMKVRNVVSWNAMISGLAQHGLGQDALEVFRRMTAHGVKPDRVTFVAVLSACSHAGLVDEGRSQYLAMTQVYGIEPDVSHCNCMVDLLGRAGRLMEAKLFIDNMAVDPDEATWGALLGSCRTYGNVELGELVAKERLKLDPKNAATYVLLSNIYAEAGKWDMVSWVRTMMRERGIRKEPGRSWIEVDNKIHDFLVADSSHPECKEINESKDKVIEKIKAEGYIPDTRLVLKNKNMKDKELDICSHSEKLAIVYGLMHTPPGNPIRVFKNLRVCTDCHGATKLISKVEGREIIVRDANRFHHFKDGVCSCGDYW

**Q.** With `Nc1ncnc2c1ncn2[C@@H]1O[C@H](COP(=O)(O)OP(=O)(O)CP(=O)(O)O)[C@@H](O)[C@H]1O` [AMPPCP] as the molecule, how does the Tm ([1]; non-hydrolysable ATP analogue) read?
**A.** 68 °C

**Q.** `Nc1ncnc2c1ncn2[C@@H]1O[C@H](COP(=O)(O)OP(=O)(O)OP(=O)(O)O)[C@@H](O)[C@H]1O` [ATP] was tested. Which “in vitro C-to-U RNA editing, RT-PCR sequencing” value (“in vitro C-to-U RNA editing” below) ([2]; may be allosteric) did it give?
**A.** ATP activates PPR56 and PPR56^PPRE1E2–OTP86^DYW in a concentration-dependent fashion

**Q.** And the Tm [3]?
**A.** we assessed the T m of H892C in the presence of the activators

**Q.** What about the Tm [4] of the same molecule?
**A.** a milder effect with ATP comparable to wild type was observed

**Q.** What about the Tm ([1]; 2 mM ATP, reversible, activator) of the same molecule?
**A.** 65 °C

**Q.** Which “in vitro C-to-U RNA editing” value [2] does the source give for `Nc1nc2c(ncn2[C@@H]2O[C@H](COP(=O)(O)OP(=O)(O)OP(=O)(O)O)[C@@H](O)[C@H]2O)c(=O)[nH]1` [GTP] here?
**A.** GTP also activate both PPR proteins in a concentration-dependent manner

**Q.** And the Tm ([1]; 2 mM GTP, reversible, activator)?
**A.** 65.3 °C

**Q.** For `O=C1NC(O)CCN1[C@@H]1O[C@H](CO)[C@@H](O)[C@H]1O` (stereo partly drawn) [tetrahydrouridine], which Tm [5] is on record?
**A.** this effect is less severe with the K915A mutation

**Q.** What about the “in vitro C-to-U RNA editing” value [2] of the same molecule?
**A.** THU increases deaminase activity markedly for both proteins in a concentration-dependent manner

**Q.** What about the Tm [3] of the same molecule?
**A.** The H892C mutant closely resembles the wild-type protein regarding activation, albeit less pronounced

**Q.** What about the Tm [4] of the same molecule?
**A.** The L917A mutation showed a prominent decrease in T m when THU was added

**Q.** What about the Tm ([1]; reversible, activator) of the same molecule?
**A.** 60 °C
